{
  "source": "patent US11920158B2",
  "about": "“Cardiomyocyte maturation” (The Council of the Queensland Institute of Medical Research, priority 2016, dated 2024)",
  "key": {"[1]": {"test_system": "human cardiac organoids (hCOs)", "assay": "Force analysis of hCO in Heart-Dyno (pole deflection, contraction parameters)", "assay_type": "cell-based", "details": "for pEC50: read-out: calcium EC50 for force of contraction", "procedure": "CTRL medium: α-MEM GlutaMAX (ThermoFisher Scientific), 10% fetal bovine serum (FBS) (ThermoFisher Scientific), 200 μM L-ascorbic acid 2 phosphate sesquimagnesium salt hydrate (Sigma) and 1% Penicillin/Streptomycin (ThermoFisher Scientific). For each hCO, 5×10^4 cardiac cells in CTRL medium were mixed with collagen I to make a 3.5 μl final solution containing 2.6 mg/ml collagen I and 9% Matrigel. The bovine acid-solubilized collagen I (Devro) was first salt balanced and pH neutralized using 10×DMEM and 0.1 M NaOH, respectively, prior to mixing with Matrigel and cells. The mixture was prepared on ice and pipetted into the Heart-Dyno. The Heart-Dyno was then centrifuged at 100×g for 10 s to ensure the hCO form halfway up the posts. The mixture was then gelled at 37° C. for 30 min prior to the addition of CTRL medium to cover the tissues (150 μl/hCO). The Heart-Dyno design facilitates the self-formation of tissues around in-built PDMS exercise poles (designed to deform ˜0.07 μm/μN). The medium was changed every 2-3 days (150 μl/hCO). hCOs were cultured in CTRL medium for formation and then changed to serum-free media as indicated for experiments. For all screening experiments, after hCO formation, hCOs were cultured in serum-free conditions comprising DMEM without glucose, glutamine and phenol red (ThermoFisher Scientific) supplemented with 4% B27 (with or without insulin) (ThermoFisher Scientific), 1% GlutaMAX (ThermoFisher Scientific), 200 μM L-ascorbic acid 2 phosphate sesquimagnesium salt hydrate and 1% Penicillin/Streptomycin (ThermoFisher Scientific). […] A timeline of the finalized hCO fabrication, culture and maturation protocol can be found in FIG. 1m.\nThe pole deflection was used to approximate the force of contraction. A Leica DMi8 inverted high content Imager was used to capture a 10 s time-lapse of each hCO contracting in real time at 37° C. Custom batch processing files were written in Matlab R2013a (Mathworks) to convert the stacked TIFF files to AVI, track the pole movement (using vision.PointTracker), determine the contractile parameters, produce a force-time figure, and export the batch data to an Excel (Microsoft) spreadsheet.\nCustom batch processing files were written in Matlab R2013a (Mathworks) to convert the stacked TIFF files to AVI, track the pole movement (using vision.PointTracker), determine the contractile parameters, produce a force-time figure, and export the batch data to an Excel (Microsoft) spreadsheet. The follow formulae were used to determine the contractile force at each time-point. Maximum deflection at the end of a rectangular cantilever fixed at one end with force applied at a specified distance:\nBased on the parameters of our system: E=1500 kPa, b=0.5 mm, h=0.2 mm, L=0.7 mm, and x=0.35 mm (hCO half-way up the poles), k=14 μN/μm."}, "[2]": {"test_system": "human cardiac organoids (hCOs)", "assay": "hCO tissue viability (viable, intact and functional tissues)", "assay_type": "cell-based", "details": "prolonged presence within the maturation media"}, "[3]": {"test_system": "hPSC-CMs in human cardiac organoids (hCOs)", "assay": "Whole-mount immunostaining and image analysis of hCO (Ki-67, pH3, MLC2v, activated β-catenin, 8-OxoG, pATM, α-actinin, DNA)", "assay_type": "cell-based", "procedure": "hCOs were fixed for 60 min with 1% paraformaldehyde (Sigma) at room temperature and washed 3× with PBS, after which they were incubated with primary antibodies (Table 1) in Blocking Buffer, 5% FBS and 0.2% Triton-X-100 (Sigma) in PBS overnight at 4° C. Cells were then washed in Blocking Buffer 2× for 2 h and subsequently incubated with secondary antibodies (Table 1) and Hoescht (1:1000) overnight at 4° C. They were washed in Blocking Buffer 2× for 2 h and imaged in situ or mounted on microscope slides using Fluoromount-G (Southern Biotech). For screening hCO were imaged using a Leica DMi8 high content imaging microscope for in situ imaging. Custom batch processing files were written in Matlab R2013a (Mathworks) to remove the background, calculate the image intensity, and export the batch data to an Excel (Microsoft) spreadsheet. For more detailed images an Olympus IX81 confocal microscope or a Nikon Diskovery Spinning Disk confocal microscope for mounted imaging. For cell cycle analysis experiments 3 random fields of view were imaged and manually quantified for proliferation. These were added together to calculate the percentage of hPSC-CM proliferation in each hCO."}, "adult cardiac muscle": {"test_system": "adult cardiac muscle", "details": "ref (23), read-out: calcium EC50; cited from earlier work"}, "[4]": {"test_system": "human cardiac organoids (hCOs)", "assay": "ELISAs for lactate dehydrogenase and cardiac troponin I (cell viability of hCO)", "assay_type": "cell-based", "details": "addition of palmitate, serum-free culture of hCOs"}},
  "note": "pEC50: −log10 of the molar value. Like-named read-outs stand apart in the source and are kept apart here.",
  "data": [
    {"molecule": "CC(C)NCC(O)c1ccc(O)c(O)c1", "note": "(centres unmarked) [isoprenaline, reference compound]", "values": [
      {"measurement": "force of contraction", "setting": "[1]; hCOs cultured in MM, culture medium 1.8 mM Ca2+ (no increase in CTRL medium)", "value": "increase in the force of contraction"},
      {"measurement": "rate of contraction", "setting": "[1]; hCOs in both CTRL medium and MM", "value": "increased the rate of contraction"},
      {"measurement": "50% contraction time", "setting": "[1]; paced 1 Hz at the calcium EC50, both CTRL medium and MM hCO", "value": "decreased 50% contraction time"}
    ]},
    {"molecule": "TGF-β1: TGFβ-1 growth factor (Peprotech)", "values": [
      {"measurement": "cell death", "setting": "[2]", "value": "significant cell death"},
      {"measurement": "hCO function (force of contraction)", "setting": "[1]; 0, 1, 3 and 10 ng/ml, day 2-5, 2-7 and 2-9, H9-derived hCOs", "value": "detrimental to hCO function"},
      {"measurement": "contractile function", "setting": "[1]; prolonged presence within the maturation media", "value": "compromised the contractile function"}
    ]},
    {"molecule": "insulin: insulin, commonly used in serum-free medium supplements (B27 with insulin)", "values": [
      {"measurement": "activated β-catenin", "setting": "[3]; 48 h, regardless of glucose or palmitate", "value": "highly dependent on insulin"},
      {"measurement": "re-activation of hPSC-CM proliferation (Ki-67)", "setting": "[3]; addition of insulin after 11 days in MM", "value": "not sufficient to re-activate"},
      {"measurement": "hPSC-CM proliferation (Ki-67 expression)", "setting": "[3]; serum-free conditions, 1 mM glucose and 10 μM palmitate", "value": "inducing hPSC-CM proliferation"}
    ]},
    {"molecule": "COc1cc(N)c(Cl)cc1C(=O)NC1CCN(CCCOc2ccc(F)cc2)CC1OC", "note": "(centres unmarked) [cisapride, reference compound]", "values": [
      {"measurement": "relaxation time", "setting": "[1]; hCO, pro-arrhythmogenic compound with hERG toxicity", "value": "prolong relaxation time"}
    ]},
    {"molecule": "[Ca+2]", "note": "[calcium]", "values": [
      {"measurement": "pEC50", "setting": "adult cardiac muscle", "value": "2.22 to 2.59"},
      {"measurement": "pEC50", "setting": "[1]; hCOs cultured in CTRL medium", "value": 3.52},
      {"measurement": "pEC50", "setting": "[1]; hCOs cultured in MM", "value": 3.00}
    ]},
    {"molecule": "Cc1c[nH]c(-c2cnc(NCCNc3ccc(C#N)cn3)nc2-c2ccc(Cl)cc2Cl)n1", "note": "[CHIR99021, reference compound]", "values": [
      {"measurement": "proliferating (Ki-67) hPSC-CMs (α-actinin)", "setting": "[3]; hCOs cultured in MM, 24 h treatment", "value": "blunted proliferative response"},
      {"measurement": "proliferation (α-actinin and Ki-67 staining)", "setting": "[3]; hCOs, 5 μm CHIR vs 0.05% DMSO", "value": "pro-proliferative effects"}
    ]},
    {"molecule": "CCCCCCCCCCCCCCCC(=O)O", "note": "[palmitate, palmitic acid]", "values": [
      {"measurement": "MLC2v expression", "setting": "[3]; addition of palmitate, serum-free with insulin, relative to 5.5 mM glucose without palmitate", "value": "increased"},
      {"measurement": "MLC2v expression", "setting": "[3]; palmitate, absence of insulin", "value": "trend to increased MLC2v expression"},
      {"measurement": "lactate dehydrogenase levels", "setting": "[4]", "value": "unaffected"},
      {"measurement": "hCO force of contraction", "setting": "[1]; 100 μM palmitate, absence of insulin, 0.5, 1 and 5.5 mM glucose", "value": "significantly higher forces"},
      {"measurement": "hCO force of contraction", "setting": "[1]; addition of 10 μM and 100 μM palmitate, serum-free conditions with insulin, vs 0 μM palmitate", "value": "trend to increase"}
    ]}
  ]
}
